Where a name gives a salt, the structure may show the parent alone.
test system: T1, 1N4R p-tau; assay: p-tau aggregation modulator screen of 1280-compound library (ThS fluorescence net change over 16 h); type: biochemical; details: not given;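 further: 30 µM compound with 6 µM p-tau over 16 h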
T1 construct: made in house; host or cells: E. coli (PIMAX system)

Compound | ThS net change
O=C1c2c(O)ccc(O)c2C(=O)c2c(NCCNCCO)ccc(NCCNCCO)c21 [Mitoxantrone dihydrochloride] | 328
CCC1(c2ccc(N)cc2)CCC(=O)NC1=O (stereo not shown) [Glutethimide, para-amino] | 340
Nc1nc2[nH]cc(CCc3ccc(C(=O)N[C@@H](CCC(=O)O)C(=O)O)cc3)c2c(=O)[nH]1 [Pemetrexed disodium] | 441

same assay, conditions: 1280-compound library screen; ThS fluorescence net change over 16 h

Compound | ThS net change
CCN(CC)CCOC(=O)C(c1ccccc1)C1CCCCC1 (stereo not shown) [Drofenine hydrochloride] | 388
Cc1noc(NS(=O)(=O)c2ccc(N)cc2)c1C [Sulfisoxazole] | 404
COc1ccc(OC)c(C(O)C(C)N)c1 (stereo not shown) [Methoxamine hydrochloride] | 405
Cc1c(NC(=O)c2cccnc2)c(=O)n(-c2ccccc2)n1C [Nifenazone] | 380
C[C@H](CCC(=O)O)[C@H]1CC[C@H]2[C@@H]3[C@H](O)C[C@@H]4C[C@H](O)CC[C@]4(C)[C@H]3CC[C@]12C [Chenodiol] | 394
CCc1ccc(CCOc2ccc(CC3SC(=O)NC3=O)cc2)nc1 (stereo not shown) [Pioglitazone] | 410
NS(=O)(=O)c1cc(C2(O)NC(=O)c3ccccc32)ccc1Cl (stereo not shown) [Chlorthalidone] | 382
Cc1nnc(SCC2=C(C(=O)O)N3C(=O)[C@@H](NC(=O)Cn4cnnn4)[C@H]3SC2)s1 [Cefazolin sodium salt] | 381
Cl.Cl.OCCN1CCN(CC/C=C2/c3ccccc3Sc3ccc(Cl)cc32)CC1 [Zuclopenthixol dihydrochloride] | 398
CC(N/C(=N\C#N)Nc1ccncc1)C(C)(C)C (stereo not shown) [Pinacidil] | 391
CCN(CC)CCNC(=O)c1ccc(N)cc1 [Procainamide hydrochloride] | 379
COc1ccc(C2CNC(=O)C2)cc1OC1CCCC1 (stereo not shown) [Rolipram] | 406
C[C@@H](O)[C@H]1C(=O)N2C(C(=O)O)=C(SCCN=CN)C[C@H]12 [Imipenem] | 385
C[C@H]1NC(=O)NC1=O [Methylhydantoin-5-(D)] | 384
C#CCN(C)Cc1ccccc1 [Pargyline hydrochloride] | 389
NCCc1c[nH]c2ccc(O)cc12 [Serotonin hydrochloride] | 412
CO/N=C(\C(=O)N[C@@H]1C(=O)N2C(C(=O)O)=C(COC(C)=O)CS[C@H]12)c1csc(N)n1 [Cefotaxime sodium salt] | 384
COc1cc(N)c(Cl)cc1C(=O)NC1CCN(CCCOc2ccc(F)cc2)CC1OC (stereo not shown) [Cisapride] | 397
Cc1ccc(NC(=O)c2ccc(CN3CCN(C)CC3)cc2)cc1Nc1nccc(-c2cccnc2)n1 [Imatinib] | 409
CCOC(=O)C1=C(C)NC(C)=C(C(=O)OC)C1c1cccc(Cl)c1Cl (stereo not shown) [Felodipine] | 405

same assay, conditions: 1280-compound library screen; […]

Compound | ThS net change
O.O=C1C(O)=C(O)C(=O)C(O)=C1O [Tetrahydroxy-1,4-quinone hydrate] | 391
COc1cc([C@@H]2c3cc4c(cc3[C@H](O)[C@H]3COC(=O)[C@H]23)OCO4)cc(OC)c1OC [Podophyllotoxin] | 402
CCN(CC)CCOc1ccc(/C(=C(/Cl)c2ccccc2)c2ccccc2)cc1.O=C(O)CC(O)(CC(=O)O)C(=O)O [Clomiphene citrate (Z,E)] | 409
NC(=O)C(c1ccccc1)(c1ccccc1)[C@@H]1CCN(CCc2ccc3c(c2)CCO3)C1 [Darifenacin hydrobromide] | 384
Molsidomine | 401

same assay, conditions: library screen, ThS fluorescence net change over 16 h with p-tau

Compound | ThS net change
CCSc1ccc2c(c1)N(CCCN1CCN(C)CC1)c1ccccc1S2.O=C(O)CC(O)C(=O)O.O=C(O)CC(O)C(=O)O [Thiethylperazine dimalate] | 317
Cc1cc(-c2ccccc2)nnc1NCCN1CCOCC1 [Minaprine dihydrochloride] | 294
COc1ccc(C(Cl)=C(c2ccc(OC)cc2)c2ccc(OC)cc2)cc1 [Chlorotrianisene] | 235

same assay, conditions: p-tau aggregation modulator screen of 1280-compound library; ThS fluorescence net change

Compound | ThS net change
CC1(C)O[C@@H]2C[C@H]3[C@@H]4C[C@H](F)C5=CC(=O)CC[C@]5(C)[C@H]4[C@@H](O)C[C@]3(C)[C@]2(C(=O)CO)O1 [Flurandrenolide] | 377
CN1CCN(C2=Nc3cc(Cl)ccc3Nc3ccccc32)CC1 [Clozapine] | 368
c1ccc(C2CN3CCSC3=N2)cc1 (stereo not shown) [Tetramisole hydrochloride] | 368
OC(CCCN1CCCCC1)(c1ccccc1)c1ccccc1 [Diphenidol hydrochloride] | 345
c1ccc([C@H]2CN3CCSC3=N2)cc1 [Levamisole hydrochloride] | 376
CC(NCCc1ccc(O)cc1)C(O)c1ccc(O)cc1 (stereo not shown) [Ritodrine hydrochloride] | 363
CC(=O)N(CC(C)C(=O)O)c1c(I)cc(I)c(N)c1I (stereo not shown) [Iocetamic acid] | 365
COc1cnc(NS(=O)(=O)c2ccc(N)cc2)nc1 [Sulfameter] | 357
CC(C)(C)NC[C@@H](O)COc1cccc2c1CCCC2=O.Cl [(+) -Levobunolol hydrochloride] | 350
CN(C)C(=O)Oc1cc(OC(=O)N(C)C)cc(C(O)CNC(C)(C)C)c1.Cl (stereo not shown) [Bambuterol hydrochloride] | 336
CN(C)CCOC(c1ccccc1)c1ccccc1 [Diphenhydramine hydrochloride] | 335
CCCCN1CCCCC1C(=O)Nc1c(C)cccc1C (stereo not shown) [Bupivacaine hydrochloride] | 364
CC1(C)S[C@@H]2[C@H](NC(=O)[C@H](N)c3ccccc3)C(=O)N2[C@H]1C(=O)O [Ampicillin trihydrate] | 355
O=C(O)Cc1ccccc1Nc1c(Cl)cccc1Cl [Diclofenac sodium] | 376
CC(C)(C)NCC(O)c1ccc(O)c(CO)c1 (stereo not shown) [Salbutamol] | 367
Cc1cnc(C(=O)NCCc2ccc(S(=O)(=O)NC(=O)NC3CCCCC3)cc2)cn1 [Glipizide] | 371
C[N+](C)(CCOc1ccccc1)Cc1ccccc1.O=C([O-])c1cc2ccccc2cc1O [Bephenium hydroxynaphthoate] | 370
CCn1cc(C(=O)O)c(=O)c2cc(F)c(N3CCNCC3)nc21 [Enoxacin] | 378
CCc1cc(C(N)=S)ccn1 [Ethionamide] | 360
O=C(O)c1cccnc1Nc1cccc(C(F)(F)F)c1 [Niflumic acid] | 340

same assay, conditions: p-tau aggregation modulator screen of 1280-compound library; […]

Compound | ThS net change
CCN(C(C)=O)c1cccc(-c2ccnc3c(C#N)cnn23)c1 [Zaleplon] | 368
Nc1ncnc2c1ncn2[C@@H]1O[C@H](COP(=O)(O)O)[C@@H](O)[C@H]1O.O [Adenosine 5'-monophosphate monohydrate] | 369
CC/C(=C(\c1ccccc1)c1ccc(OCCN(C)C)cc1)c1ccccc1 [Tamoxifen citrate] | 336
Clc1ccc(CSC(Cn2ccnc2)c2ccc(Cl)cc2Cl)cc1 (stereo not shown) [Sulconazole nitrate] | 336
O.O=C(O)C(O)C(O)C(=O)O.O=C(c1ccc(F)cc1)C1CCN(CCn2c(=O)[nH]c3ccccc3c2=O)CC1 [Ketanserin tartrate hydrate] | 354
CC(C)(C)NCC(O)c1cc(Cl)c(N)c(Cl)c1 (stereo not shown) [Clenbuterol hydrochloride] | 349
C[C@]12CCC(=O)C=C1CC[C@@H]1[C@@H]2C(=O)C[C@]2(C)C(=O)CC[C@@H]12 [Adrenosterone] | 334

same assay, conditions: p-tau aggregation modulator screen of the compound library, ThS fluorescence net change

Compound | ThS net change
O=C(O)CN(CCN(CC(=O)O)CC(=O)O)CCN(CC(=O)O)CC(=O)O [Pentetic acid] | 480
COc1ccc2[nH]c([S+]([O-])Cc3ncc(C)c(OC)c3C)nc2c1 (stereo not shown) [Omeprazole] | 454
Cn1c(=O)c2c(ncn2C)n(C)c1=O [Caffeine] | 428
CCOC(=O)OC(C)OC1=C(C(=O)Nc2ccccn2)N(C)S(=O)(=O)c2ccccc21 (stereo not shown) [Ampiroxicam] | 493
O=c1[nH]cc(F)c(=O)[nH]1 [5-fluorouracil] | 471
CC(C[N+](C)(C)C)OC(N)=O (stereo not shown) [Bethanechol chloride] | 418
CO/N=C(\C(=O)N[C@@H]1C(=O)N2C(C(=O)OC(C)OC(C)=O)=C(COC(N)=O)CS[C@H]12)c1ccco1 (stereo partly shown) [Cefuroxime axetil] | 445
Nc1nc(/C(=C/CC(=O)O)C(=O)N[C@@H]2C(=O)N3C(C(=O)O)=CCS[C@H]23)cs1 [Ceftibuten] | 441
CC(C)c1nc(CN(C)C(=O)N[C@H](C(=O)N[C@@H](Cc2ccccc2)C[C@H](O)[C@H](Cc2ccccc2)NC(=O)OCc2cncs2)C(C)C)cs1 [Ritonavir] | 538
CC(=O)O[C@H]1C(=O)[C@@]2(C)[C@H]([C@H](OC(=O)c3ccccc3)[C@]3(O)C[C@H](OC(=O)[C@H](O)[C@@H](NC(=O)c4ccccc4)c4ccccc4)C(C)=C1C3(C)C)[C@]1(OC(C)=O)CO[C@@H]1C[C@@H]2O [Paclitaxel] | 437
CCOc1ccc(Cc2nccc3cc(OCC)c(OCC)cc23)cc1OCC [Ethaverine hydrochloride] | 439
NC(=O)OCC(COC(N)=O)c1ccccc1 [Felbamate] | 439
C[C@]12CCC(=O)C=C1C=C[C@@H]1[C@@H]2CC[C@@]2(C)[C@H]1CC[C@@]21CCC(=O)O1 [Canrenone] | 462
CCc1oc2ccccc2c1C(=O)c1cc(Br)c(O)c(Br)c1 [Benzbromarone] | 498
CN(C)CCC=C1c2ccccc2C=Cc2ccccc21 [Cyclobenzaprine hydrochloride] | 414
NC(=O)OCC(O)COc1ccc(Cl)cc1 (stereo not shown) [Chlorphensin carbamate] | 516
COc1ccc(CN2CCN(C(c3ccc(F)cc3)c3ccc(F)cc3)CC2)c(OC)c1OC.Cl [Lomerizine hydrochloride] | 458
Cn1c(=O)c2c(ncn2CCO)n(C)c1=O [Etofylline] | 422
